# Experimental data published in patent US12600728B2, “Interleukin-17 inhibitors” (priority 2020, dated 2026).
# Where two headings read alike, the source gives them in different places.
# Target: biotinylated human IL-17A / AF647-labeled human IL-17RA (Homo sapiens, UniProt Q16552)
# Test: Human IL-17A×IL-17RA TR-FRET assay
# Assay type: binding
# Experimental: Human IL-17A×IL-17RA TR-FRET Assay
# Each compound concentration is tested in duplicate.
# The final total assay volume is 10 μL.
# Each plate contains test compounds in columns 1-22 and controls in columns 23 and 24. The neutral control (NC) contains all the assay components, but DMSO instead of test compound. […] The fluorescence values for emission at 615 nm and 665 nm are loaded to the evaluation software Helios.
# From the activity data at each compound concentration, the IC50 values are obtained using the 4-parameter logistic function (“Hill-slope model”) of Helios.
# [1] = TR-FRET, biotinylated human IL-17A 5 nM, AF647-labeled human IL-17RA 30 nM, read-out: IL17AA FRET/ IL17Rawt IC50
# [2] = TR-FRET, 5 nM IL-17A, 30 nM IL-17RA, read-out: IL17AA FRET/ IL17Rawt IC50
# Sequence of biotinylated human IL-17A / AF647-labeled human IL-17RA (Q16552 24-155): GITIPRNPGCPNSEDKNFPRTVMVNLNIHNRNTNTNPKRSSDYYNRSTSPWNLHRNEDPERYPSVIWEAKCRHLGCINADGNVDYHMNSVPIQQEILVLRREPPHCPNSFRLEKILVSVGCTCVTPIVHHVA
IC50 [1],IC50 [2],Compound,other results
–,464 nM,"Cc1cc[n+]([O-])c(C)c1-c1ccc(NC(=O)C(NC(=O)c2ccc3n2CCN(C)C3)C2CC3CC3C2)cc1 (single isomer, unassigned) [Example 150]",–
680 nM,–,"CCn1nccc1C(=O)NC(C(=O)Nc1ccc(-c2c(Cl)cc[n+]([O-])c2C)cc1)C1CCC(C(F)(F)F)CC1 [Example 20, 4-chloro-3-(4-((S)-2-(1-ethyl-1H-pyrazole-5-carboxamido)-2-((1r,4S)-4-(trifluoromethyl)cyclohexyl)acetamido)phenyl)-2-methylpyridine 1-oxi]",–

# More lines, now with the values behind:
Compound,IC50 [1],IC50 [2],other results
"Cc1cc[n+]([O-])c(C)c1-c1ccc(NC(=O)[C@@H](NC(=O)c2ccc3n2CCN(C2COC2)C3)[C@H]2CC[C@H](C(F)(F)F)CC2)cc1 [Example 132, 2,4-dimethyl-3-(4-((S)-2-(2-(oxetan-3-yl)-1,2,3,4-tetrahydropyrrolo[1,2-a]pyrazine-6-carboxamido)-2-((1r,4S)-4-(trifluoromethyl)cyclohexyl)acetamido)phenyl)pyridine 1-oxide]",866 nM,–,–
"Cc1c(-c2ccc(NC(=O)[C@@H](NC(=O)c3ccc4n3CCN(C)C4)C3CCC(F)CC3)cc2)c(Cl)cc[n+]1[O-] (mixture of isomers) [Example 129, 4-chloro-3-(4-((2S)-2-(4-fluorocyclohexyl)-2-(2-methyl-1,2,3,4-tetrahydropyrrolo[1,2-a]pyrazine-6-carboxamido)acetamido)phenyl)-2-methylpyridine 1-oxide]",382 nM,–,–
"Cc1c[n+]([O-])ccc1-c1ccc(NC(=O)[C@@H](NC(=O)c2ccnn2C)C2CCCCC2)cc1 [Example 111, (S)-4-(4-(2-cyclohexyl-2-(1-methyl-1H-pyrazole-5-carboxamido)acetamido)phenyl)-3-methylpyridine I-oxide]",–,–,"IC50 (IL17AA FRET/ IL17Rawt IC50, TR-FRET, biotinylated human IL-17A 5 nM, AF647-labeled human IL-17RA 30 nM): 4780 nM"
"COCCN1CCn2c(ccc2C(=O)N[C@H](C(=O)Nc2ccc(-c3c(C)cc[n+]([O-])c3C)cc2)C2CCCCC2)C1 [Example 135, (S)-3-(4-(2-cyclohexyl-2-(2-(2-methoxyethyl)-1,2,3,4-tetrahydropyrrolo[1,2-a]pyrazine-6-carboxamido)acetamido)phenyl)-2,4-dimethylpyridine 1-oxide]",451 nM,–,–
"Cc1cc[n+]([O-])cc1-c1ccc(NC(=O)[C@@H](NC(=O)c2ccnn2C)C2CCCCC2)cc1 [Example 81, (S)-3-(4-(2-cyclohexyl-2-(1-methyl-1H-pyrazole-5-carboxamido)acetamido)phenyl)-4-methylpyridine 1-oxide]",3740 nM,–,–
"Cc1cc[n+]([O-])c(C)c1-c1ccc(NC(=O)[C@@H](NC(=O)c2ccc3n2CCNC3)[C@H]2CCCC(F)(F)C2)cc1 [Example 208, 3-(4-((S)-2-((S)-3,3-difluorocyclohexyl)-2-(1,2,3,4-tetrahydropyrrolo[1,2-a]pyrazine-6-carboxamido)acetamido)phenyl)-2,4-dimethylpyridine 1-oxide]",–,316 nM,–
"Cc1cc[n+]([O-])c(C)c1-c1ccc(NC(=O)[C@@H](NC(=O)c2ccc3n2CCN(C)C3)C2CCCC2)cc1 [Example 153, (S)-3-(4-(2-cyclopentyl-2-(2-methyl-1,2,3,4-tetrahydropyrrolo[1,2-a]pyrazine-6-carboxamido)acetamido)phenyl)-2,4-dimethylpyridine 1-oxide]",–,798 nM,–
"CCn1nccc1C(=O)N[C@H](C(=O)Nc1ccc(-c2c(C(F)(F)F)cc[n+]([O-])c2C)cc1)C1CC2CC2C1 (stereo partly drawn) [Example 223, 3-(4-((2S)-2-(bicyclo[3.1.0]hexan-3-yl)-2-(1-ethyl-1H-pyrazole-5-carboxamido)acetamido)phenyl)-2-methyl-4-(trifluoromethyl)pyridine 1-oxide]",–,9080 nM,–
"CCc1nocc1C(=O)N[C@H](C(=O)Nc1ccc(-c2c(C)ccnc2C)cc1)[C@H]1CC[C@H](C(F)(F)F)CC1 [compound 142, N-((S)-2-((4-(2,4-dimethylpyridin-3-yl)phenyl)amino)-2-oxo-1-((1r,4S)-4-(trifluoromethyl)cyclohexyl)ethyl)-3-ethylisoxazole-4-carboxamide, reference compound]",–,–,"IC50 (TR-FRET, 5 nM IL-17A, 30 nM IL-17RA, reference examples (pyridines), read-out: IL17AA FRET/ IL17RAwt IC50): 4380 nM"
